This passage reports EC50 results from patent publication US9682955B2, “Quinazoline derivatives useful as CB-1 inverse agonists” (Janssen Pharmaceutica NV, priority 2014, dated 2017).

Test [1] addresses Human CB2R (Cannabanoid receptor 2) (Homo sapiens (Human), UniProt P34972). As to the kind of experiment: CB-2 in vitro cAMP assay (HTRF). The format is cell-based. The conditions noted are these: mean where tested more than once. An excerpt:
(§1) CB1 and CB2 receptors are Gi-coupled GPCR. Activation of CB1 and CB2 receptors results in a decrease in cAMP production. An inverse agonist of the CB1 or CB2 receptor results in the opposite effect, an increase of cAMP production. The principle of this assay is based on HTRF® technology (Homogeneous Time-Resolved Fluorescence). The method is a competitive immunoassay between native cAMP produced by cells and the cAMP labeled with the fluorophore d2. The tracer binding is quantified by a Mab anti-cAMP labeled with Eu3+TBP-NHS Cryptate (supplied as part of the assay kit). The specific signal (i.e. energy transfer) is inversely proportional to the concentration of cAMP in the standard or sample.
(§2) Human CB1R (Cannabanoid receptor 1) was stably transfected in HEK-293 cells (DiscoveRx, cat: 93-0200C1). Human CB2R (Cannabanoid receptor 2) was stably transfected in HEK-293 cells (DiscoveRx, cat: 93-0201C1). Cell cultures were maintained in media: DMEM (Invitrogen Cat#12430-054) supplemented with 10% HI FBS (Invitrogen Cat#16140-071), 1% L-glutamine (Invitrogen Cat#25030-081), 0.2 mg/ml Hygromycin B (Invitrogen Cat#10687-010), 600 μg/mL G418 (Invitrogen Cat#10131-035), and 1× Penn/Strep (Invitrogen 15140-122). After cell expansion, aliquots were cryo-stored in media containing 5% DMSO (Pierce Cat#20684).
(§3) One day prior to experiments media was warmed to 37° C. and the cryo-stored cells were thawed in a 37° C. water bath. The cells were then added to media (10× volume) and the mixture was centrifugated at 1000 RPM for 5 min. The supernate was removed and the cells were re-suspended in media. A sample of the cell suspension was evaluated on a Cedex XS automated cell counter (Innovatis Systems) to determine viable cells/ml. Additional media was added to the cells to achieve a final cell density of 4E5 cells/mL. The cells were then plated into 384 well PDL white solid bottom plates (Greiner, Cat#781945) at 20 μL per well using a Multidrop (Thermo Scientific). Cells were removed from Row P (location of cAMP standards). Two columns of cells were plated into a clear bottom 384 well PDL coated plate (Greiner, Cat#781944) to view confluence the day of the assay. The cell plates were lidded and stored for 15 minutes in a hood, then transferred to an incubator (37° C., 5% CO2, 95% humidity) overnight.
(§4) DMSO was added to all wells of 384 well V bottom polystyrene plate (Greiner, Cat#781280) except to columns 1 and 13, rows O and P and wells M13-M23 and N13-N23. Test compounds (60 μL, 10 mM) were added to Column 1 and 13 (A1 through N1 and A13 through L13). Test compounds were serially diluted 1/3 by transferring and mixing 20 μl sample with 40 μL DMSO.
(§5) DMSO (40 μL) was added to wells of 384 well V bottom polystyrene plate: O2 through O11, M14 through M23, N14 through N23, and O14 through O23. AM630 (also known as [6-iodo-2-methyl-1-[2-(4-morpholinyl)ethyl]-1H-indol-3-yl](4-methoxyphenyl)-methanone, Cayman Chemical, Cat#10006974) (60 μL, 10 mM) was added to O1; and 1-(2,4-dichlorophenyl)-7-[(4-fluorophenyl)methylene]-4,5,6,7-tetrahydro-N-1-piperidinyl-1H-indazole-3-carboxamide (60 μL, 10 mM) was added to N13. The control was serially diluted 1/3 by transferring and mixing 20 μl sample with 40 μL DMSO. This process resulted 11 doses per control, 10 mM to […].
(§6) Cells plated the day prior to the assay in clear bottom plates were viewed on an inverse microscope to ensure confluency in the range of 60-75%. […]

The target in test [2] is Human CB1R (Cannabanoid receptor 1) (Homo sapiens (Human), UniProt P21554). As to the kind of experiment: CB-1 in vitro cAMP assay (HTRF). The format is cell-based. The settings on record: mean where tested more than once.
Source text: as §1, §2, §3, §4, §5, §6

Sequence of Human CB2R (Cannabanoid receptor 2) (P34972 whole entry): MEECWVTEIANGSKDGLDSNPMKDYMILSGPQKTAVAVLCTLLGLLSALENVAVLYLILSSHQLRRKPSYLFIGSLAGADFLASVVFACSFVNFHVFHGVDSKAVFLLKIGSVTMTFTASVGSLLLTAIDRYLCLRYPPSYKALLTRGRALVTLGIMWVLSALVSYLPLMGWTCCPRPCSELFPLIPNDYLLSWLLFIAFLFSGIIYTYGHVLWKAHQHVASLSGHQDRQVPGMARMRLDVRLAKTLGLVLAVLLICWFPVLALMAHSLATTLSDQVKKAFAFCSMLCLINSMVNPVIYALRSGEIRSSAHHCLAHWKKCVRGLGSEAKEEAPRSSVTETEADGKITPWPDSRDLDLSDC
Sequence of Human CB1R (Cannabanoid receptor 1) (P21554 whole entry): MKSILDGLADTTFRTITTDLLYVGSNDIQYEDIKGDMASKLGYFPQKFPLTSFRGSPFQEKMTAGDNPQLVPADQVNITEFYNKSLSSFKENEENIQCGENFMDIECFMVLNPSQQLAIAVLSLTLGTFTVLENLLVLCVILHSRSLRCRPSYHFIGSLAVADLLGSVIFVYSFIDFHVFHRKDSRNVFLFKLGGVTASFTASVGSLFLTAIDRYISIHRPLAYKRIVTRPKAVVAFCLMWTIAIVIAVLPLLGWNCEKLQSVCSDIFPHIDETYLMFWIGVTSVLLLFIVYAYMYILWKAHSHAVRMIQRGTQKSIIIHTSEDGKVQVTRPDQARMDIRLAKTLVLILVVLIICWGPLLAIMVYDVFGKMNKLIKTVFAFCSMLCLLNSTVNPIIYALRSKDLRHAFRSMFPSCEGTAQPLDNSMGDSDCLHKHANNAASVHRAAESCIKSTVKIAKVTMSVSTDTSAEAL

Turning to `O=C(O)c1cccc(CNc2ncnc3ccc(C(c4ccc(Cl)cc4)c4ccc(Cl)cc4)cc23)c1` [Compound #59, 3-(((6-(bis(4-chlorophenyl)methyl)quinazolin-4-yl)amino)methyl)benzoic acid], the EC50 in test [1] was greater than 10000 nM; in test [2], 4430 nM.

For the molecule `COC(=O)c1cccc(CNc2ncnc3ccc(C(c4ccc(Cl)cc4)c4ccc(Cl)cc4)cc23)c1` [Compound #62, Methyl 3-(((6-(bis(4-chlorophenyl)methyl)quinazolin-4-yl)amino)methyl)benzoate], the concentration giving a half-maximal response (EC50) in test [1] worked out at 8080 nM; in test [2], 14 nM.

As for `CC(C)OC(=O)OCOC(=O)c1ccc(S(=O)(=O)N2CCC(Nc3ncnc4ccc(C(c5ccc(Cl)cc5)c5ccc(Cl)cc5)cc34)CC2)cc1` [Compound #64, ((Isopropoxycarbonyl)oxy)methyl 4-((4-((6-(bis(4-chlorophenyl)methyl)quinazolin-4-yl)amino)piperidin-1-yl)sulfonyl)benzoate], the EC50 in test [1] was greater than 10000 nM; in test [2] it was 15 nM.

As for `NC(=O)CCCOc1nc(NCc2ccc(C(F)(F)F)cc2)c2cc(C(c3ccc(Cl)cc3)c3ccc(Cl)cc3)ccc2n1` [Compound #66, 4-((6-(bis(4-chlorophenyl)methyl)-4-((4-(trifluoromethyl)benzyl)amino)quinazolin-2-yl)oxy)butanamide], the EC50 stood at 845 nM in test [1] and 8 nM in test [2].

Take `Fc1ccc(C(c2ccc(F)cc2)c2ccc3ncnc(NC4CCN(c5ccccc5)CC4)c3c2)cc1` [Compound #67, 6-(bis(4-fluorophenyl)methyl)-N-(1-phenylpiperidin-4-yl)quinazolin-4-amine]: the EC50 came out at 1150 nM in test [1] and 1 nM in test [2].

Turning to `O=C(O)c1ccc(C(=O)N2CCC(Nc3ncnc4ccc(C(c5ccc(Cl)cc5)c5ccc(Cl)cc5)cc34)CC2)cc1` [Compound #68, 4-(4-((6-(bis(4-chlorophenyl)methyl)quinazolin-4-yl)amino)piperidine-1-carbonyl)benzoic acid], the EC50 in test [1] is greater than 10000 nM; in test [2] it was 950 nM.

Regarding `CC(=O)NCCOc1nc(NCc2ccc(C(F)(F)F)cc2)c2cc(C(c3ccc(Cl)cc3)c3ccc(Cl)cc3)ccc2n1` [Compound #69, N-(2-((6-(bis(4-chlorophenyl)methyl)-4-((4-(trifluoromethyl)benzyl)amino)quinazolin-2-yl)oxy)ethyl)acetamide], the values for the EC50 in test [1] and in test [2] were greater than 10000 nM and 98 nM, respectively.

With `OCCCCOc1nc(NCc2ccc(C(F)(F)F)cc2)c2cc(C(c3ccc(Cl)cc3)c3ccc(Cl)cc3)ccc2n1` [Compound #71, 4-((6-(bis(4-chlorophenyl)methyl)-4-((4-(trifluoromethyl)benzyl)amino)quinazolin-2-yl)oxy)butan-1-ol], the EC50 in test [1] was greater than 10000 nM; in test [2], 19 nM.

With `NCCOc1nc(NCc2ccc(C(F)(F)F)cc2)c2cc(C(c3ccc(Cl)cc3)c3ccc(Cl)cc3)ccc2n1` [Compound #72, 2-(2-aminoethoxy)-6-(bis(4-chlorophenyl)methyl)-N-(4-(trifluoromethyl)benzyl)quinazolin-4-amine], the results for the EC50 in test [1] and in test [2] were greater than 10000 nM and 51 nM, respectively.

Take `COC(=O)c1ccc(C(=O)N2CCC(Nc3ncnc4ccc(C(c5ccc(Cl)cc5)c5ccc(Cl)cc5)cc34)CC2)cc1` [Compound #73, methyl 4-(4-((6-(bis(4-chlorophenyl)methyl)quinazolin-4-yl)amino)piperidine-1-carbonyl)benzoate]: the EC50 in test [1] turned out to be 4430 nM; in test [2], 14 nM.

With `NC(=O)Cc1ccc(N2CCC(Nc3ncnc4ccc(C(c5ccc(Cl)cc5)c5ccc(Cl)cc5)cc34)CC2)cc1` [Compound #74, 2-(4-(4-((6-(bis(4-chlorophenyl)methyl)quinazolin-4-yl)amino)piperidin-1-yl)phenyl)acetamide], the half-maximal effective concentration (EC50) in test [1] was determined as 178 nM; in test [2] it was 82 nM.

As for `[N-]=[N+]=NCCOc1nc(NCc2ccc(C(F)(F)F)cc2)c2cc(C(c3ccc(Cl)cc3)c3ccc(Cl)cc3)ccc2n1` [Compound #75, 2-(2-azidoethoxy)-6-(bis(4-chlorophenyl)methyl)-N-(4-(trifluoromethyl)benzyl)quinazolin-4-amine], the EC50 in test [1] is greater than 10000 nM; in test [2], 5 nM.

With `O=S(=O)(CCO)N1CCC(Nc2ncnc3ccc(C(c4ccc(Cl)cc4)c4ccc(Cl)cc4)cc23)CC1` [Compound #78, 2-((4-((6-(bis(4-chlorophenyl)methyl)quinazolin-4-yl)amino)piperidin-1-yl)sulfonyl)ethanol], the EC50 worked out at 9400 nM in test [1] and 16 nM in test [2].

`COC(=O)Cc1ccc(N2CCC(Nc3ncnc4ccc(C(c5ccc(Cl)cc5)c5ccc(Cl)cc5)cc34)CC2)cc1` [Compound #79, Methyl 2-(4-(4-((6-(bis(4-chlorophenyl)methyl)quinazolin-4-yl)amino)piperidin-1-yl)phenyl)acetate]: the results for the EC50 in test [1] and in test [2] were 173 nM and 4 nM, respectively.

Turning to `CCOC(=O)CCC(=O)N1CCC(Nc2ncnc3ccc(C(c4ccc(Cl)cc4)c4ccc(Cl)cc4)cc23)CC1` [Compound #81, Ethyl 4-(4-((6-(bis(4-chlorophenyl)methyl)quinazolin-4-yl)amino)piperidin-1-yl)-4-oxobutanoate], the values for the EC50 in test [1] and in test [2] were 452 nM and 2 nM, respectively.

In the case of `O=C(NCCO)c1ccc(N2CCC(Nc3ncnc4ccc(C(c5ccc(Cl)cc5)c5ccc(Cl)cc5)cc34)CC2)cc1` [Compound #84, 4-(4-((6-(bis(4-chlorophenyl)methyl)quinazolin-4-yl)amino)piperidin-1-yl)-N-(2-hydroxyethyl)benzamide], the concentration for a half-maximal effect (EC50) in test [1] stood at 326 nM; in test [2] it was 26 nM.

`COc1nc(NCc2ccc(C(F)(F)F)cc2)c2cc(C(c3ccc(Cl)cc3)c3ccc(Cl)cc3)ccc2n1` [Compound #85, 6-(bis(4-chlorophenyl)methyl)-2-methoxy-N-(4-(trifluoromethyl)benzyl)quinazolin-4-amine]: the EC50 in test [1] is greater than 10000 nM; in test [2], 10 nM.

Turning to `NC(=O)CCC(=O)N1CCC(Nc2ncnc3ccc(C(c4ccc(Cl)cc4)c4ccc(Cl)cc4)cc23)CC1` [Compound #86, 4-(4-((6-(bis(4-chlorophenyl)methyl)quinazolin-4-yl)amino)piperidin-1-yl)-4-oxobutanamide], the EC50 turned out to be 9000 nM in test [1] and 2460 nM in test [2].

Turning to `NC(=O)c1ccc(N2CCC(Nc3ncnc4ccc(C(c5ccc(Cl)cc5)c5ccc(Cl)cc5)cc34)CC2)cc1` [Compound #90, 4-(4-((6-(bis(4-chlorophenyl)methyl)quinazolin-4-yl)amino)piperidin-1-yl)benzamide], the EC50 in test [1] stood at 461 nM; in test [2] it was 34 nM.

Take `COCCOc1nc(NCc2ccc(C(F)(F)F)cc2)c2cc(C(c3ccc(Cl)cc3)c3ccc(Cl)cc3)ccc2n1` [Compound #91, 6-(bis(4-chlorophenyl)methyl)-2-(2-methoxyethoxy)-N-(4-(trifluoromethyl)benzyl)quinazolin-4-amine]: the EC50 is greater than 10000 nM in test [1] and 30 nM in test [2].

`O=C(O)c1ccc(N2CCC(Nc3ncnc4ccc(C(c5ccc(Cl)cc5)c5ccc(Cl)cc5)cc34)CC2)cc1` [Compound #92, 4-(4-((6-(bis(4-chlorophenyl)methyl)quinazolin-4-yl)amino)piperidin-1-yl)benzoic acid]: the EC50 was determined as 195 nM in test [1] and 695 nM in test [2].
